Assay results from US11191717B2, “Topical therapy for the treatment of skin malignancies using nanoparticles of taxanes” (DFB SORIA, LLC, priority 2017, dated 2021).
Read-outs that look alike come from different tables or passages of the source. Each block holds one compound with its values, some of them ahead of it.

What was measured:
[1] = methanol/water 15/85 (v/v), 37° C., pH 7, 75 rpm, cited from earlier work
[2] = tested on: intact human cadaver skin; assay: In vitro skin penetration diffusion study (Franz diffusion cell); assay type: in vitro ADME; settings: results in Table 14 (formulas F1 through F13)
Protocol: The skin was centered and the edges flattened out. […] Additional receptor fluid was added where necessary.
Cells were left uncapped during the experiment.

[3] = Particle size analysis of paclitaxel nanoparticles lots (ACCUSIZER 780); assay type: physicochemical; settings: nanoparticle API in 0.1% w/w SDS solution
Protocol: Instrument parameters: Max. Concentration: 9000 particles/mL, No. containers: 1, Sensor Range: Summation, Lower Detection Limit: 0.5 μm, Flow Rate: 30 mL/min, No. Analysis pulls: 4, Time between pulls: 1 sec, Pull volume: 10 mL, Tare Volume: 1 mL, Prime volume: 1 mL, Include First Pull: Not Selected.
Vortexed for 5-10 minutes and sonicated in a water batch for 1 minute.
Method: Filled a plastic bottle with filtered (0.22 μm) 0.1% w/w SDS solution and analyzed the Background.

[4] = Observations of paclitaxel nanoparticle crystals in various substances and solutions of substances (light microscopy); assay type: physicochemical

SMILES: CC(=O)O[C@@]12CO[C@@H]1C[C@H](O)[C@@]1(C)C(=O)[C@H](O)C3=C(C)[C@@H](OC(=O)[C@H](O)[C@@H](NC(=O)OC(C)(C)C)c4ccccc4)C[C@@](O)([C@@H](OC(=O)c4ccccc4)[C@H]21)C3(C)C [docetaxel nanoparticles, docetaxel]
dissolution rate, dissolved in 30 minutes ([1]; made by milling): 9% | dissolution rate, dissolved in 30 minutes ([1]; made by the supercritical carbon dioxide method): 27%

SMILES: CC(=O)O[C@H]1C(=O)[C@@]2(C)[C@H]([C@H](OC(=O)c3ccccc3)[C@]3(O)C[C@H](OC(=O)[C@H](O)[C@@H](NC(=O)c4ccccc4)c4ccccc4)C(C)=C1C3(C)C)[C@]1(OC(C)=O)CO[C@@H]1C[C@@H]2O [Paclitaxel, paclitaxel]
transdermal flux of the paclitaxel through the skin (epidermis and dermis) [2]: less than 0.01 μg/cm^2

SMILES: CC(=O)O[C@H]1C(=O)[C@@]2(C)[C@H]([C@H](OC(=O)c3ccccc3)[C@]3(O)C[C@H](OC(=O)[C@H](O)[C@@H](NC(=O)c4ccccc4)c4ccccc4)C(C)=C1C3(C)C)[C@]1(OC(C)=O)CO[C@@H]1C[C@@H]2O [Paclitaxel nanoparticles lot used in formulas listed in Tabl] [listing 1 of 2 here]
Particle size, Mean (number-weighted differential distribution) [3]: 0.861 μm | Particle size, Median (number-weighted differential distribution) [3]: 0.710 μm | Particle size, Mode (number-weighted differential distribution) [3]: 0.572 μm

More lines, now with the values ahead:

Visual observation by light microscopy- Needle shaped crystals observed? ([4]; in Aluminum sulfate 0.1-0.2% in water, @ 7 days, RT): Yes, >5 μm, @ | Visual observation by light microscopy- Needle shaped crystals observed? ([4]; in Ammonium lauryl sulfate 2% in water, @ 3 days, RT): Yes, >5 μm @ | Visual observation by light microscopy- Needle shaped crystals observed? ([4]; in Benzalkonium chloride (50%) 2% in water, @ 7 days & 21 days, RT): No, <5 μm @ | Visual observation by light microscopy- Needle shaped crystals observed? ([4]; in CARBOPOL ULTREZ 10 (with Ammonium hydroxide as neutralizer) 0.5% in water, @ 8 days & 21 days, RT): No, <5 μm, @ 8 | Visual observation by light microscopy- Needle shaped crystals observed? ([4]; in Castor Oil 100%, @ 24 hrs & 9 days, RT): No, <5 μm @ 24 | Visual observation by light microscopy- Needle shaped crystals observed? ([4]; in Dimethicone, 1000 cSt 100%, @ 24 hrs & 6 days, RT): No, <5 μm @ 24 | Visual observation by light microscopy- Needle shaped crystals observed? ([4]; in FOMBLIN HC04 100%, @ 4, 7 & 13 days, RT): No, <5 μm @ 4, | Visual observation by light microscopy- Needle shaped crystals observed? ([4]; in Hydroxyethyl cellulose 1% in water, @ 7 days, RT): Yes, >5 μm, @ | Visual observation by light microscopy- Needle shaped crystals observed? ([4]; in Hydroxypropyl methylcellulose 1% in water, @ 3 days, RT): Yes, >5 μm @ | Visual observation by light microscopy- Needle shaped crystals observed? ([4]; in Lecithin 1% in water, @ 24 hrs, RT): Yes, >10 μm, @ | Visual observation by light microscopy- Needle shaped crystals observed? ([4]; in Light Mineral Oil NF 100%, @ 3 days, RT & 40 C.): No, <5 μm @ 3 | Visual observation by light microscopy- Needle shaped crystals observed? ([4]; in Magnesium nitrate 5% in water, @ 3 days, RT): Yes, >5 μm @ | Visual observation by light microscopy- Needle shaped crystals observed? ([4]; in Mannitol 5% in water, @ 7 days, RT): Yes, >5 μm, @ | Visual observation by light microscopy- Needle shaped crystals observed? ([4]; in Mineral Oil USP (heavy) 100%, @ 3 days, RT & 40 C.): No, <5 μm @ 3 | Visual observation by light microscopy- Needle shaped crystals observed? ([4]; in PEG 400 10% in water, @ 22 days, RT & 60 C.): Yes, >5 μm @ 22 | Visual observation by light microscopy- Needle shaped crystals observed? ([4]; in Poloxamer 188 2% in water, @ 7 days, RT): Yes, >5 μm @ 7 | Visual observation by light microscopy- Needle shaped crystals observed? ([4]; in Poloxamer 407 2% in water, @ 5 & 7 days, RT): No, <5 μm @ | Visual observation by light microscopy- Needle shaped crystals observed? ([4]; in Polyoxyl 40 Hydrogenated Castor Oil (KOLLIPHOR RH40) 1% in water, @ 6 days, RT): Yes, <5 μm @ 6 | Visual observation by light microscopy- Needle shaped crystals observed? ([4]; in Polysorbate 80 0.5% in Saline, @ 7 days, RT & 60 C.): Yes, >5 μm @ | Visual observation by light microscopy- Needle shaped crystals observed? ([4]; in Polysorbate 80 0.5% in water, @ 22 days, RT & 60 C.): Yes, <5 μm @ 22 | Visual observation by light microscopy- Needle shaped crystals observed? ([4]; in Povidone 1% in water, @ 7 days & 21 days, RT): Yes, <5 μm @ 7 | Visual observation by light microscopy- Needle shaped crystals observed? ([4]; in Proline 3% in water, @ 7 days, RT): Yes, >5 μm, @ | Visual observation by light microscopy- Needle shaped crystals observed? ([4]; in Purified Water 100%, @ 5 days, RT & 60 C.): Yes, >5 μm, @ 5 | Visual observation by light microscopy- Needle shaped crystals observed? ([4]; in ST-Cyclomethicone 5 NF 100%, @ 24 hrs & 13 days, RT): No, <5 μm @ 24 | Visual observation by light microscopy- Needle shaped crystals observed? ([4]; in Saline 0.9% NaCl in water, @ 7 days, RT & 60 C.): Yes, >10 μm, @ | Visual observation by light microscopy- Needle shaped crystals observed? ([4]; in Sodium lauryl sulfate 2% in water, @ 7 days, RT): Yes, >5 μm, @ | Visual observation by light microscopy- Needle shaped crystals observed? ([4]; in Sodium phosphate monobasic 0.75% in water, @ 7 days, RT): Yes, >5 μm, @ | Visual observation by light microscopy- Needle shaped crystals observed? ([4]; in Sorbitol 5% in water, @ 7 days, RT): Yes, >5 μm, @ | Visual observation by light microscopy- Needle shaped crystals observed? ([4]; in Vitamin E TPGS 0.5% in water, @ 6 days, RT): Yes, <5 μm @ 6 | Visual observation by light microscopy- Needle shaped crystals observed? ([4]; in Zinc acetate […] in water, @ 7 days, RT): Yes, >5 μm, @
SMILES: CC(=O)O[C@H]1C(=O)[C@@]2(C)[C@H]([C@H](OC(=O)c3ccccc3)[C@]3(O)C[C@H](OC(=O)[C@H](O)[C@@H](NC(=O)c4ccccc4)c4ccccc4)C(C)=C1C3(C)C)[C@]1(OC(C)=O)CO[C@@H]1C[C@@H]2O [Paclitaxel nanoparticles, paclitaxel]

Particle size, Mean (number-weighted differential distribution) [3]: 0.83 μm
SMILES: CC(=O)O[C@H]1C(=O)[C@@]2(C)[C@H]([C@H](OC(=O)c3ccccc3)[C@]3(O)C[C@H](OC(=O)[C@H](O)[C@@H](NC(=O)c4ccccc4)c4ccccc4)C(C)=C1C3(C)C)[C@]1(OC(C)=O)CO[C@@H]1C[C@@H]2O [Paclitaxel nanoparticles lot used in formulas listed in Tabl] [listing 2 of 2 here]
